Species: Rattus norvegicus
Assay: Open TG-GATES - Regimen: Single
Type: toxicity, organism-based, Sprague-Dawley
Parameters: regimen Single, gender Male, age 6 weeks
Details: in vivo, po, 30 mg/kg, route gavage, dose level High; for APTT / Bas / Eos / Fbg / Hb / Ht / Lym / MCH / MCHC / Mono / Neu / Plat / RBC / Ret / WBC: tissue Blood; for KIDNEY_L / KIDNEY_R / KIDNEY_TOTAL: tissue Kidney; for LIVER: tissue Liver; for ALP / ALT / AST / BUN / CRE / Ca / Cl / DBIL / GLC / IP / K / LDH / Na / PL / RALB / TBIL / TC / TG / TP / gamma-GTP: tissue Plasma

SMILES: O=C(CCCN1CCC(O)(c2ccc(Cl)cc2)CC1)c1ccc(F)cc1 [HALOPERIDOL]
- TERMINAL_BW (3 h): 205 g
- APTT (3 h): 17.2 s
- Bas (3 h): 0%
- Eos (3 h): 0.2%
- Fbg (3 h): 207.6 mg/dL
- Hb (3 h): 12.8 g/dL
- Ht (3 h): 38.4%
- Lym (3 h): 70.4%
- MCH (3 h): 21.5 pg
- MCHC (3 h): 33.3%
- Mono (3 h): 6%
- Neu (3 h): 23.4%
- Plat (3 h): 97 x10_4/uL
- RBC (3 h): 593.6 x10_4/ul
- Ret (3 h): 8.9%
- WBC (3 h): 57.7 x10_2/uL
- KIDNEY_L (3 h): 0.9 g
- KIDNEY_R (3 h): 0.9 g
- KIDNEY_TOTAL (3 h): 1.9 g
- LIVER (3 h): 9.5 g
- ALP (3 h): 676.8 IU/L
- ALT (3 h): 31.4 IU/L
- AST (3 h): 52 IU/L
- BUN (3 h): 12.2 mg/dL
- CRE (3 h): 0.5 mg/dL
- Ca (3 h): 10.7 mg/dL
- Cl (3 h): 108.8 meq/L
- DBIL (3 h): 0.018 mg/dL
- GLC (3 h): 222.8 mg/dL
- IP (3 h): 10.5 mg/dL
- K (3 h): 4.4 meq/L
- LDH (3 h): 166.8 IU/L
- Na (3 h): 140.8 meq/L
- PL (3 h): 157.6 mg/dL
- RALB (3 h): 3.7 g/dL
- TBIL (3 h): 0.3 mg/dL
- TC (3 h): 92.2 mg/dL
- TG (3 h): 34.6 mg/dL
- TP (3 h): 5.6 g/dL
- gamma-GTP (3 h): 1.4 IU/L
- TERMINAL_BW (6 h): 194.4 g
- APTT (6 h): 17.2 s
- Bas (6 h): 0%
- Eos (6 h): 0.4%
- Fbg (6 h): 198.5 mg/dL
- Hb (6 h): 13.9 g/dL
- Ht (6 h): 41.3%
- Lym (6 h): 72.6%
- MCH (6 h): 21.4 pg
- MCHC (6 h): 33.7%
- Mono (6 h): 4.4%
- Neu (6 h): 22.6%
- Plat (6 h): 110.6 x10_4/uL
- RBC (6 h): 647.2 x10_4/ul
- Ret (6 h): 9.3%
- WBC (6 h): 75.5 x10_2/uL
- KIDNEY_L (6 h): 0.9 g
- KIDNEY_R (6 h): 0.9 g
- KIDNEY_TOTAL (6 h): 1.8 g
- LIVER (6 h): 8.9 g
- ALP (6 h): 742.6 IU/L
- ALT (6 h): 30.6 IU/L
- AST (6 h): 59.8 IU/L
- BUN (6 h): 9.2 mg/dL
- CRE (6 h): 0.5 mg/dL
- Ca (6 h): 10.1 mg/dL
- Cl (6 h): 108.2 meq/L
- DBIL (6 h): 0.036 mg/dL
- GLC (6 h): 215.6 mg/dL
- IP (6 h): 10.1 mg/dL
- K (6 h): 4.6 meq/L
- LDH (6 h): 179.8 IU/L
- Na (6 h): 140 meq/L
- PL (6 h): 133.6 mg/dL
- RALB (6 h): 3.6 g/dL
- TBIL (6 h): 0.3 mg/dL
- TC (6 h): 77.8 mg/dL
- TG (6 h): 20 mg/dL
- TP (6 h): 5.5 g/dL
- gamma-GTP (6 h): 1.2 IU/L
- TERMINAL_BW (9 h): 194.2 g
- APTT (9 h): 16.9 s
- Bas (9 h): 0%
- Eos (9 h): 1.4%
- Fbg (9 h): 216 mg/dL
- Hb (9 h): 13.6 g/dL
- Ht (9 h): 40.7%
- Lym (9 h): 69%
- MCH (9 h): 21.9 pg
- MCHC (9 h): 33.4%
- Mono (9 h): 5.6%
- Neu (9 h): 24%
- Plat (9 h): 104 x10_4/uL
- RBC (9 h): 623 x10_4/ul
- Ret (9 h): 8.6%
- WBC (9 h): 59.3 x10_2/uL
- KIDNEY_L (9 h): 0.9 g
- KIDNEY_R (9 h): 0.9 g
- KIDNEY_TOTAL (9 h): 1.8 g
- LIVER (9 h): 8.3 g
- ALP (9 h): 898.8 IU/L
- ALT (9 h): 26.8 IU/L
- AST (9 h): 53.2 IU/L
- BUN (9 h): 10.8 mg/dL
- CRE (9 h): 0.5 mg/dL
- Ca (9 h): 9.9 mg/dL
- Cl (9 h): 108.8 meq/L
- DBIL (9 h): 0.012 mg/dL
- GLC (9 h): 201.2 mg/dL
- IP (9 h): 10.8 mg/dL
- K (9 h): 4.8 meq/L
- LDH (9 h): 180.8 IU/L
- Na (9 h): 140.6 meq/L
- PL (9 h): 137.2 mg/dL
- RALB (9 h): 3.9 g/dL
- TBIL (9 h): 0.3 mg/dL
- TC (9 h): 75.8 mg/dL
- TG (9 h): 21.4 mg/dL
- TP (9 h): 5.6 g/dL
- gamma-GTP (9 h): 1.2 IU/L
- TERMINAL_BW (24 h): 194.5 g
- APTT (24 h): 15.2 s
- Bas (24 h): 0%
- Eos (24 h): 0.6%
- Fbg (24 h): 200.2 mg/dL
- Hb (24 h): 14.5 g/dL
- Ht (24 h): 43.1%
- Lym (24 h): 80.8%
- MCH (24 h): 21.4 pg
- MCHC (24 h): 33.7%
- Mono (24 h): 5.8%
- Neu (24 h): 12.8%
- Plat (24 h): 118.2 x10_4/uL
- RBC (24 h): 680 x10_4/ul
- Ret (24 h): 7.7%
- WBC (24 h): 59.7 x10_2/uL
- KIDNEY_L (24 h): 0.9 g
- KIDNEY_R (24 h): 0.9 g
- KIDNEY_TOTAL (24 h): 1.8 g
- LIVER (24 h): 8.9 g
- ALP (24 h): 744.8 IU/L
- ALT (24 h): 30.2 IU/L
- AST (24 h): 67.8 IU/L
- BUN (24 h): 28.6 mg/dL
- CRE (24 h): 0.5 mg/dL
- Ca (24 h): 11 mg/dL
- Cl (24 h): 105 meq/L
- DBIL (24 h): 0.044 mg/dL
- GLC (24 h): 181 mg/dL
- IP (24 h): 9.7 mg/dL
- K (24 h): 5.3 meq/L
- LDH (24 h): 216.4 IU/L
- Na (24 h): 140 meq/L
- PL (24 h): 142.8 mg/dL
- RALB (24 h): 4.1 g/dL
- TBIL (24 h): 0.4 mg/dL
- TC (24 h): 77 mg/dL
- TG (24 h): 95 mg/dL
- TP (24 h): 6.1 g/dL
- gamma-GTP (24 h): 1 IU/L

Source: ChEMBL document CHEMBL3885861, “Open TG-GATES”
